In brackets after ≈: the same amount, converted by molar mass. Several values for one entry are separate records, joined by “and”; a condition that tells them apart may be missing. Equal values may be shown once. Read-outs that look alike come from different tables or passages of the source.
Tests used:
H9 cells = test: MTT cytotoxicity assay; type: cell-based, human; conditions: 4 days
Experimental: The cytotoxicity of M522 and M532 drugs against H9 cells was analyzed using MTT [3-(4,5-dimethylthiazol-2-yl)-2,5-diphenyltetrazolium bromide] assay (Sigma Chemical Co.) (Uckun et al., 1998). Briefly, exponentially growing H9 cells were seeded onto 96-well plates at a density of 3×10^4 cells/well and incubated for 24 h at 37° C. prior to drug exposure. On the day of treatment, a series Of M522 and M532 concentrations (1.25, 2.5, 5, 10, 20, 40, 80, and 160 μg/ ml) were used to test their cytotoxicity in H9 cells. Quadruplicate wells were used for each treatment. The cells were incubated with M522 and M532 for 4 days at 37° C. in a humidified 5% CO2 atmosphere. To each well, 50 μl of MTT (1 mg/ml final concentration) was added and the plates were incubated at 37° C. for 4 h to allow MTT to form formazan crystals by reacting with metabolically active cells. The formazan crystals were solubilized with DMSO. The absorbance of each well was measured in a microtiter reader at optical density 540 nm. The reaction is specific, no significant amounts of formazan can be detected with dead cells.

[1] = test system: HIV-1IIIBA17 and HIV-1L10R/M461/L63P/V82T/184V; test: HIV replication in infected H9 cells, HIV/p24 monoclonal antibody assay; type: cell-based; conditions: Human immunodeficiency virus 1, H9, read-out: IC50 against HIV replication
Experimental: The following cells and virus strains were obtained from the AIDS Research and Reference Regent Program, Division of AIDS, National Institute of Allergy and Infectious Diseases: H9 cells, virus strains of HIV-1IIIBA17, a variant resistant to RT nonnucleotide inhibitors and HIV-1L10R/M461/L63P/V82T/184V, a protease inhibitor resistant virus, as well as viral strains HTLV-IIImn, HIV-1RTMF and HTLV-IIIB. Virus-infected H9 cells were cultured in the presence of different concentrations of M522 and M532 and viral replication was assayed using the HIV/p24 monoclonal antibody assay.
The inhibitory effect of M522 and M532 against HIV replication was further examined using HIV-1IIIBA17, a variant resistant to RT nonnucleotide inhibitors and HIV-1L10R/M461/L63P/V82T/184V, a protease inhibitor resistant virus, as testing viruses in the presence of a variety of drug concentrations in infected H9 cells.
FIG. 7A graphically illustrates the effect of M522 and M532 on HIV-1 replication. FIG. 7A illustrates the dose-dependent inhibition of HIV-1 replication in H9 cells infected with HIV-1IIIBA17 and HIV-1L10R/M461/L63P/V82T/184V viruses in the presence of different drug concentrations of M522 and M532.

HIV-1 integrase = HIV-1 integrase (Human immunodeficiency virus type 1 group M subtype B, UniProt P12497); test: HIV-1 integrase 3'-end processing assay; type: biochemical
Experimental: The HIV-1 integrase assay utilized in testing described below used a DNA substrate consisting of a DNA sequence derived from the U5 end of HIV-1 LTR. It was prepared by annealing oligonucleotide U5V1 (5′-[…]) with its complementary strand U5V2 (3′-[…]). The U5V1 strand was labeled at the 5′-end with [γ-^32P] ATP using T4 polynucleotide kinase as described previously (Kamata et al., 1994). The standard reaction mixture included reaction buffer (40 mM HEPES, pH 7.5, 20 mM MnCL2, 60 mM NaCl, 20 mM DTT and 0.1% Nonidet-P40) and HIV-1 integrase (NIH AIDS Research and Reference Reagent Program). To assay for 3′-end processing, the labeled substrate was incubated with the reaction mixture for 60 minutes at 37° C. An equal volume of stop solution (95% formamide, 30 mM EDTA, 0.1% xylene cyanol, 0.1% bromophenol blue) was added to each reaction and the samples were heated to 95°′ C. for 5 minutes to denature the DNA. The samples were then fractionated by electrophorsis on a 15% denaturing polyacrylamide gel. The 3′-end processing activity was monitored by the appearance of a radioactive oligonucleotides product (33 nt), shortened by two nucleotides from the original substrate (35 nt). The products were visualized by autoradiography and quantitation was carried out by phosphorimaging.

HIV-1IIIBA17 variant = test: HIV-1 replication in H9 cells, p24 antigen assay; type: cell-based; conditions: for inhibition at 1.25 µg/mL / inhibition at 2.5 µg/mL / inhibition at 5 µg/mL / inhibition at 10 µg/mL / inhibition at 20 µg/mL / inhibition at 40 µg/mL / inhibition at 80 µg/mL: Human immunodeficiency virus 1, H9; for IC50: Human immunodeficiency virus 1, H9, 192 h, read-out: IC50, HIV-1 replication
Experimental: (§1) Inhibitory activity of M522 and M532 against the replication of four different HIV-1 strains was tested in this example. Two of the strains were drug-resistant virus isolates (HIV-1RTMF resistant against AZT and HIV-1IIIBA17 variant resistant against inhibition by RT nonnucleotide inhibitors) and the other two were primary isolates (HTLV-IIIMN and HTLV-IIIB).
(§2) On the day before infection, H9 cells were subcultured at 1–2×10^5 cells/ml and on the day of the infection, cells were pelleted by centrifugation at room temperature for 10 minutes. The pellet was then resuspended with 1 ml of each strain according to the virus titer. The mixtures were incubated at 37 ° C. in CO2 incubator for 2 hours. The cells were then washed two times with PBS and then two times with the culture medium (RPMI 1640). The cells were resuspended with fresh medium and plated in 96 well plates. Every 3–4 days after infection, cells were sub-cultured and supernatant was saved to assay for virus production.
(§3) The activity of M522 against the four strains were tested at various drug concentrations of 80, 40, 20, 10, 5, 2.5, 1.25, and 0 μg/ml. After 8 days, the infection of the cells was detected by using HIV-1 p24 antigen assay, which is an enzyme immunoassay (EIA, or enzyme-linked immunosorbent assay) developed for detection and quantitation of the HIV-1 p24 core protein.

HIV-1RTMF = test: HIV-1 replication in H9 cells, p24 antigen assay; type: cell-based; conditions: for inhibition at 1.25 µg/mL / inhibition at 2.5 µg/mL / inhibition at 5 µg/mL / inhibition at 10 µg/mL / inhibition at 20 µg/mL / inhibition at 40 µg/mL / inhibition at 80 µg/mL: Human immunodeficiency virus 1, H9; for IC50: Human immunodeficiency virus 1, H9, 192 h, read-out: IC50, HIV-1 replication
Experimental: as §1, §2, §3

HTLV-IIIMN = test: HIV-1 replication in H9 cells, p24 antigen assay; type: cell-based; conditions: for IC50: Human immunodeficiency virus 1, 192 h, H9 cells, 8 days; for inhibition at 1.25 µg/mL: Human immunodeficiency virus 1, H9, 1.25 μg/ml; for inhibition at 2.5 µg/mL: Human immunodeficiency virus 1, H9, 2.5 μg/ml; for inhibition at 5 µg/mL: Human immunodeficiency virus 1, H9, 5.0 μg/ml; for inhibition at 10 µg/mL: Human immunodeficiency virus 1, H9, 10.0 μg/ml; for inhibition at 20 µg/mL: Human immunodeficiency virus 1, H9, 20.0 μg/ml; for inhibition at 40 µg/mL: Human immunodeficiency virus 1, H9, 40.0 μg/ml; for inhibition at 80 µg/mL: Human immunodeficiency virus 1, H9, 80.0 μg/ml
Experimental: as §1, §2, §3

HTLV-IIIB = test: HIV-1 replication in H9 cells, p24 antigen assay; type: cell-based; conditions: for IC50: Human immunodeficiency virus 1, 192 h, H9 cells, 8 days; for inhibition at 1.25 µg/mL: Human immunodeficiency virus 1, H9, 1.25 μg/ml; for inhibition at 2.5 µg/mL: Human immunodeficiency virus 1, H9, 2.5 μg/ml; for inhibition at 5 µg/mL: Human immunodeficiency virus 1, H9, 5.0 μg/ml; for inhibition at 10 µg/mL: Human immunodeficiency virus 1, H9, 10.0 μg/ml; for inhibition at 20 µg/mL: Human immunodeficiency virus 1, H9, 20.0 μg/ml; for inhibition at 40 µg/mL: Human immunodeficiency virus 1, H9, 40.0 μg/ml; for inhibition at 80 µg/mL: Human immunodeficiency virus 1, H9, 80.0 μg/ml
Experimental: as §1, §2, §3

Row | Structure (SMILES) | CC100; cells remained viable at highest concentration tested (H9 cells) | IC50 [1] | inhibition at 1.25 µg/mL (HIV-1IIIBA17 variant) | inhibition at 2.5 µg/mL (HIV-1IIIBA17 variant) | inhibition at 5 µg/mL (HIV-1IIIBA17 variant) | inhibition at 10 µg/mL (HIV-1IIIBA17 variant) | inhibition at 20 µg/mL (HIV-1IIIBA17 variant) | inhibition at 40 µg/mL (HIV-1IIIBA17 variant) | inhibition at 80 µg/mL (HIV-1IIIBA17 variant) | IC50 (HIV-1IIIBA17 variant) | inhibition at 1.25 µg/mL (HIV-1RTMF) | inhibition at 2.5 µg/mL (HIV-1RTMF) | inhibition at 5 µg/mL (HIV-1RTMF) | inhibition at 10 µg/mL (HIV-1RTMF) | inhibition at 20 µg/mL (HIV-1RTMF) | inhibition at 40 µg/mL (HIV-1RTMF) | inhibition at 80 µg/mL (HIV-1RTMF) | IC50 (HIV-1RTMF) | IC50 (HTLV-IIIMN) | inhibition at 1.25 µg/mL (HTLV-IIIMN) | other results
1 | O=C(/C=C/c1ccc(O)c2c1[C@H](C(=O)O)[C@@H](c1ccc(O)c(O)c1)O2)O[C@H](Cc1ccc(O)c(O)c1)C(=O)O [M522, 4-{2-[1-carboxy-2-(3,4-dihydroxy-phenyl)-ethoxycarbonyl]-vinyl}-2-(3,4-dihydroxy-phenyl)-7-hydroxy-2,3-dihydro-benzofuran-3-carboxylic acid] | > 297 µM | 1.5 µg/mL and 2.7 µM | 51.2% | 53.6% | 76.8% | 85% | 90.2% | 100% | 100% | 1.5 µg/mL (≈ 2.79 µM) | 26.2% | 47.7% | 78.6% | 83.4% | 95.5% | 98.2% | 100% | 2.7 µg/mL (≈ 5.01 µM) | 9 µg/mL (≈ 16.7 µM) | 7.7% | IC50 (HIV-1 integrase; read-out: IC50, inhibition of HIV-1 integrase 3' processing activity (converted)): 836 nM and 830 nM; inhibition at 2.5 µg/mL (HTLV-IIIMN): 21.8%; inhibition at 5 µg/mL (HTLV-IIIMN): 30%; inhibition at 10 µg/mL (HTLV-IIIMN): 51.9%; inhibition at 20 µg/mL (HTLV-IIIMN): 72.1%; inhibition at 40 µg/mL (HTLV-IIIMN): 77.3%; inhibition at 80 µg/mL (HTLV-IIIMN): 88.4%; IC50 (HTLV-IIIB): 11 µg/mL (≈ 20.4 µM); inhibition at 1.25 µg/mL (HTLV-IIIB): 31.4%; inhibition at 2.5 µg/mL (HTLV-IIIB): 42.1%; inhibition at 5 µg/mL (HTLV-IIIB): 45.9%; inhibition at 10 µg/mL (HTLV-IIIB): 47.3%; inhibition at 20 µg/mL (HTLV-IIIB): 62%; inhibition at 40 µg/mL (HTLV-IIIB): 82.4%; inhibition at 80 µg/mL (HTLV-IIIB): 94.5%
2 | O=C(/C=C/c1ccc(O)c2c1[C@H](C(=O)O[C@H](Cc1ccc(O)c(O)c1)C(=O)O)[C@@H](c1ccc(O)c(O)c1)O2)O[C@H](Cc1ccc(O)c(O)c1)C(=O)O [M532, 4-{2-[1-carboxy-2-(3,4-dihydroxy-phenyl)-ethoxycarbonyl]-vinyl}-2-(3,4-dihydroxy-phenyl)-7-hydroxy-2,3-dihydro-benzofuran-3-carboxylic acid 1-carboxy-2-(3,4-dihydroxy-phenyl)-ethyl ester] | > 223 µM | 1 µg/mL and 1.39 µM | 2% | 21.8% | 50% | 53.6% | 97.5% | 97.7% | 98.4% | 5 µg/mL (≈ 6.96 µM) | 20.8% | 38.7% | 44.2% | 73.6% | 90.4% | 95% | 98.3% | 5.6 µg/mL (≈ 7.79 µM) | 5.5 µg/mL (≈ 7.65 µM) | 8.3% | IC50 (HIV-1 integrase; IC50, inhibition of HIV-1 integrase 3' processing activity): 487 nM and 450 nM; inhibition at 2.5 µg/mL (HTLV-IIIMN): 45.7%; inhibition at 5 µg/mL (HTLV-IIIMN): 47%; inhibition at 10 µg/mL (HTLV-IIIMN): 57.2%; inhibition at 20 µg/mL (HTLV-IIIMN): 87%; inhibition at 40 µg/mL (HTLV-IIIMN): 90%; inhibition at 80 µg/mL (HTLV-IIIMN): 94.1%; IC50 (HTLV-IIIB): 11 µg/mL (≈ 15.3 µM); inhibition at 1.25 µg/mL (HTLV-IIIB): 4.7%; inhibition at 2.5 µg/mL (HTLV-IIIB): 16.1%; inhibition at 5 µg/mL (HTLV-IIIB): 20.1%; inhibition at 10 µg/mL (HTLV-IIIB): 34.5%; inhibition at 20 µg/mL (HTLV-IIIB): 90.8%; inhibition at 40 µg/mL (HTLV-IIIB): 96.2%; inhibition at 80 µg/mL (HTLV-IIIB): 96.8%

— patent publication US7071227B2, “Antiviral compositions and methods of use” (The Johns Hopkins University, priority 2000, dated 2006)
